Reference: PubChem BioAssay (NCI)
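Test compounds were applied to cells in 96-well plates for 48 hours at 5 doses. At the TGI there is no net growth.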

Experiments:
Assay in all cases: NCI anticancer screen, dose series, 48 h
[1] = test system: SK-MEL-5 melanoma
[2] = test system: KM12 colon
[3] = test system: SN12C renal
[4] = test system: HT29 colon
[5] = test system: PC-3 prostate
[6] = test system: CCRF-CEM leukemia
[7] = test system: SR leukemia
[8] = test system: EKVX NSCLC
[9] = test system: TK-10 renal
[10] = test system: K-562 leukemia

Compound	TGI [1] [µM]	TGI [2] [µM]	TGI [3] [µM]	TGI [4] [µM]	TGI [5] [µM]	TGI [6] [µM]	TGI [7] [µM]	TGI [8] [µM]	TGI [9] [µM]	TGI [10] [µM]
COc1ccc(N[C@H](CS(=O)c2ccc(C)cc2)C(F)(F)F)cc1 (stereo partly drawn)	> 100	> 100	> 100	> 100	> 100	> 100	> 100	> 100	> 100	> 100
O=C(O)CN1CCN2CCCCCCCCN(CC1)CCN(CC(=O)O)CC2	> 100	> 100	> 100	> 100	> 100	> 100	–	> 100	> 100	> 100
Cc1cc(-c2nc3ccc(F)cc3s2)ccc1NC(=O)C(N)CCCCN (stereo not drawn)	20.4	4.87	21.3	13.1	22.7	7.68	8.18	26.5	14.5	8.2
NC1=Nc2ccccc2Sc2nccn21	33.6	69.9	> 100	65.1	65	75.3	80.8	> 100	72.6	50
[N-]=[N+]=C1C(=O)C2CC3CC1CC2C3 (stereo not drawn)	> 100	> 100	> 100	> 100	–	> 100	> 100	> 100	> 100	> 100
CC1(C)C(CBr)=[N+]([O-])C(C)(C)N1O	> 10	> 10	9.93	> 10	> 10	4.49	> 10	> 8.02	> 10	> 8.04
C/C=C(\C)C(=O)OC1C2C(C)=CC(=O)C(O)C2(C)C2C3(O)OCC24C1OC(=O)C(OC(C)=O)C4C(C)C3O (stereo not drawn)	–	0.0375	0.468	0.382	–	0.244	–	0.103	–	0.375
Cc1cc(OP2(=O)NCc3ccncc3O2)ccc1Cl (stereo not drawn)	> 100	> 100	> 100	> 100	> 100	> 100	> 100	> 100	–	> 100
Cc1ccc(F)c2[nH]c(-c3ccccc3)cc(=O)c12	14.9	> 100	> 100	> 100	> 100	> 100	> 100	> 100	> 100	> 100
CCOC(=O)c1ccc(NCc2ccc3nc(OC)c(OC)nc3c2)cc1	> 100	> 100	> 100	> 100	> 100	> 100	> 100	> 100	–	> 100
O=S(=O)(O)c1ccc(N=Nc2ccc(N=Nc3c(O)ccc4ccc(S(=O)(=O)O)cc34)cc2)cc1	> 100	> 100	> 100	> 100	> 100	> 100	> 100	> 100	> 100	> 100
CCCC(=O)Nc1cc(/C=C/C(=O)N2CC(CCl)c3ccc([N+](=O)[O-])cc32)n(C)c1 (stereo not drawn)	–	> 100	> 100	> 100	> 100	29.4	> 100	> 100	> 100	> 100
COc1cc(/C=C2\N=C(c3ccccc3)N(c3nc4ccccc4s3)C2=O)cc(OC)c1OC	> 100	> 100	82.4	> 100	> 100	–	42.5	> 100	> 100	> 100
COC(Cc1cc(C(O)(c2ccc(C(C)(C)C)cc2)c2cc(CC(OC)(c3cc(C(OC)(c4ccc(C(C)(C)C)cc4)c4ccc(C(C)(C)C)cc4)c(C)cc3C)c3cc(C(OC)(c4ccc(C(C)(C)C)cc4)c4ccc(C(C)(C)C)cc4)c(C)cc3C)c(C)cc2C)c(C)cc1C)(c1cc(C(OC)(c2ccc(C(C)(C)C)cc2)c2ccc(C(C)(C)C)cc2)c(C)cc1C)c1cc(C(OC)(c2ccc(C(C)(C)C)cc2)c2ccc(C(C)(C)C)cc2)c(C)cc1C	> 75	–	> 75	> 75	> 75	> 75	> 75	> 75	> 75	> 75
CCOP(=O)(OCC)/C(=C\n1ccc(=O)[nH]c1=S)C(=O)OC	> 100	> 100	> 100	> 100	> 100	> 100	> 100	> 100	–	> 100
Cc1ccc(N2C=Nn3c(nc4sc5c(c4c3=O)CCCC5)C2)cc1	> 100	> 100	> 100	> 100	> 100	> 100	–	> 100	> 100	> 100
CSc1nc2nccnc2c(=O)[nH]1	> 100	–	> 100	> 100	–	> 100	> 100	> 100	> 100	> 100
CC1=C(C(=O)O)N2C(=O)[C@@H](NC(=O)C(c3ccccc3)N3CSC(=S)N(C(C)C)C3)C2SC1 (stereo partly drawn)	> 100	> 100	> 100	> 100	–	> 100	–	> 100	> 100	> 100
N#CC1(C#N)C(=O)c2ccncc2C1=O	> 100	> 100	> 100	> 100	> 100	> 100	> 100	> 100	–	> 100
C[C@H](CCC(=O)O)[C@H]1CC[C@H]2[C@@H]3[C@H](O)[C@H](O)[C@@H]4C[C@H](O)CC[C@]4(C)[C@H]3CC[C@]12C	–	> 100	> 100	> 100	> 100	> 100	–	> 100	> 100	> 100
CC(C)(Oc1ccc2c(=O)cc(-c3ccc(Cl)cc3)oc2c1)C(=O)Nc1c(Cl)cccc1Cl	> 100	> 100	–	> 100	–	> 100	> 100	> 100	> 100	> 100
